Like-named read-outs stand apart in the source and are kept apart here.
Conditions: for physical state of the salt: room temperature
Procedure: The term “liquid” means that the salt is in a state of matter where the particles are loose and can freely form a distinct surface at the boundaries of the bulk material. The liquid's shape is determined by the container it fills. The liquid can be of low or high viscosity, e.g. in the form of an oil or thick oil.
The liquid salt of the present invention can be prepared by mixing rasagiline and the acid and recovering the salt. […] Efficient mixing can be mediated by the use of a mixer mill. Alternatively, the rasagiline and the acid can be mixed in the presence of a solvent. In this case, either the rasagiline or the acid or the rasagiline and the acid can be suspended or dissolved in the same or different solvents before mixing. For example, first the rasagiline can be dissolved in the solvent and then the acid is added to this solution. Suitable solvents are, e.g., water, tetrahydrofurane, isopropyl alcohol, acetone, diisopropyl ether, and mixtures thereof. Preferred solvents are diisopropyl ether and acetone.
In the following table 1, the reference examples and examples of the present invention are summarized: […]

C#CCN[C@@H]1CCc2ccccc21 [Ex. 3, Rasagiline Propanoate]
physical state of the salt at 0° C. (0° C.): solid | physical state of the salt (listed as Rasagiline propionate): oil

Rasagiline Docusate [Ref. Ex. 6]
physical state of the salt: solid wax

C#CCN[C@@H]1CCc2ccccc21.CC(=O)O [Ref. Ex. 9, Rasagiline Acetate]
physical state of the salt: crystalline solid

C#CCNC1CCc2ccccc21.O=C1NS(=O)(=O)c2ccccc21 (stereo not shown) [Ref. Ex. 5, Rasagiline Saccharinate]
physical state of the salt: solid

C#CCN[C@@H]1CCc2ccccc21 [Ref. Ex. 7, Rasagiline Lauryl Sulphate]
physical state of the salt: solids

C#CCN[C@@H]1CCc2ccccc21 [Ref. Ex. 8, Rasagiline 4-dodecylbenzenesulfonate]
physical state of the salt (listed as rasagiline dodecyl benzene sulphonate): solids

Reference: patent US8946482B2, “Salts of rasagiline and pharmaceutical preparations thereof” (Ratiopharm GmbH, priority 2009, dated 2015)
